Measurements taken from US20020035061A1, “COMPOSITIONS AND METHODS FOR TREATING INFECTIONS USING CATIONIC PEPTIDES ALONE OR IN COMBINATION WITH ANTIBIOTICS” (priority 1996, published 2002).
Where two headings read alike, the source gives them in different places.

Columns and labels:
A. calcoaceticus = type: cell-based
E. cloacae = type: cell-based
E. coli = type: cell-based
E. faecalis = type: cell-based; conditions: for MIC, Peptide: unmodified parent peptide
E. faecium = type: cell-based; conditions: E. faecium strain EFM003
H. influenzae = assay: Agarose dilution assay (MIC); type: cell-based; conditions: H. influenzae strain HIN002
K. pneumoniae = type: cell-based
P. aeruginosa = type: cell-based
S. aureus = type: cell-based; conditions: for MIC, Peptide: unmodified parent peptide
S. epidermidis = type: cell-based; conditions: S. epidermidis strain SE003
S. maltophilia = type: cell-based
S. marcescens = type: cell-based
S. pneumoniae = assay: Agarose dilution assay (MIC); type: cell-based
S. pyogenes = assay: Agarose dilution assay (MIC); type: cell-based; conditions: S. pyogenes strain SPY006
bacterial isolates = assay: microbe, parasite or virus in culture; type: cell-based
[1] = system: inherently resistant microorganisms; assay: microbe, parasite or virus in culture; type: cell-based; conditions: S. aureus
[2] = system: microorganisms with acquired resistance; assay: microbe, parasite or virus in culture; type: cell-based
[3] = system: MSSA (Smith, ATCC # 19640); assay: In vivo efficacy, MSSA infection; design: species or system S. aureus; conditions: formulation D, 60 min post-infection, end of eight day observation
[4] = A. baumannii ABI001, Tobramycin section
[5] = P. aeruginosa 23, Piperacillin section
[6] = P. aeruginosa PA032, Tobramycin section
[7] = S. aureus SA014 (also SA014 MRSA)
[8] = S. maltophilia SMA029, Tobramycin section
[9] = S. maltophilia SMA030, Tobramycin section
[10] = peptide + Piperacillin, P. aeruginosa 23
[11] = peptide + Tobramycin, A. baumannii ABI001
[12] = peptide + Tobramycin, P. aeruginosa PA032
[13] = peptide + Tobramycin, S. maltophilia SMA029
[14] = peptide + Tobramycin, S. maltophilia SMA030

ILKKWVWWPWRRK [MBI 11F3CN]
10%: % Survival ([3]; 18 mg/kg ip)
128 µg/mL: MIC, Peptide (P. aeruginosa; P. aeruginosa PA004, unmodified parent peptide) | MIC (P. aeruginosa; P. aeruginosa strain PA041) | Peptide MIC Alone (bacterial isolates; P. aeruginosa 41, Piperacillin section) | Peptide MIC Alone (bacterial isolates; [8]) | Peptide MIC Alone (bacterial isolates; [9]) | Peptide MIC Alone ([2]; P. aeruginosa 7, Piperacillin section) | Peptide MIC Alone [2, 8] | Peptide MIC Alone [2, 9]
0.5 µg/mL: Tobramycin MIC + Peptide (bacterial isolates; A. baumannii ABI001) | Peptide MIC + Piperacillin (bacterial isolates; P. aeruginosa 23) | Tobramycin MIC + Peptide ([2]; A. baumannii ABI001) | Peptide MIC + Piperacillin ([2]; P. aeruginosa 23)
0%: % Survival ([3]; 12 mg/kg ip)
4 µg/mL: MIC (A. calcoaceticus; A. calcoaceticus strain AC002) | MIC (E. faecium) | Piperacillin MIC + Peptide (bacterial isolates; P. aeruginosa 41) | Tobramycin MIC + Peptide (bacterial isolates; P. aeruginosa PA032) | Peptide MIC Alone (bacterial isolates; S. aureus 19 MRSA, Piperacillin section) | Peptide MIC Alone (bacterial isolates; S. aureus SA014 (also SA014 MRSA), Tobramycin section) | Peptide MIC Alone (bacterial isolates; S. haemolyticus SHA005, Tobramycin section) | Peptide MIC + Tobramycin (bacterial isolates; S. maltophilia SMA029) | Peptide MIC Alone ([1]; Tobramycin section) | Peptide MIC + Piperacillin ([2]; A. calcoaceticus 3) | Tobramycin MIC + Peptide ([2]; P. aeruginosa PA032)
64 µg/mL: MIC, Peptide (K. pneumoniae; K. pneumoniae KP001, unmodified parent peptide) | MIC (K. pneumoniae; K. pneumoniae strain KP002) | MIC, Peptide (S. maltophilia; S. maltophilia SMA002, unmodified parent peptide) | MIC (S. maltophilia; S. maltophilia strain SMA002) | Piperacillin MIC + Peptide (bacterial isolates; P. aeruginosa 23) | Peptide MIC Alone (bacterial isolates; [5]) | Peptide MIC + Piperacillin (bacterial isolates; P. aeruginosa 41) | Peptide MIC + Tobramycin (bacterial isolates; P. aeruginosa PA032) | Piperacillin MIC + Peptide (bacterial isolates; S. aureus SB3MRSA) | Peptide MIC + Piperacillin ([2]; P. aeruginosa 7) | Piperacillin MIC + Peptide ([2]; P. aeruginosa 7) | Piperacillin MIC + Peptide ([2]; P. aeruginosa 23) | Peptide MIC Alone [2, 5] | Peptide MIC + Tobramycin ([2]; P. aeruginosa PA032)
0.51: FIC (bacterial isolates; [10]) | FIC (bacterial isolates; peptide + Tobramycin, S. aureus SA014 (also SA014 MRSA)) | FIC ([1]; peptide + Tobramycin) | FIC [2, 10]
90%: % Survival ([3]; 24 mg/kg ip)
0.53: FIC (bacterial isolates; [11]) | FIC [2, 11]
2 µg/mL: MIC, Peptide (A. calcoaceticus; A. calcoaceticus AC002, unmodified parent peptide) | MIC, Peptide (S. aureus; S. aureus SA010) | MIC, Peptide (S. aureus; S. aureus SA025) | MIC (S. aureus; S. aureus strain SA005) | MIC (S. epidermidis) | Tobramycin MIC + Peptide (bacterial isolates; A. baumannii ABI002) | Peptide MIC + Tobramycin (bacterial isolates; [7]) | Tobramycin MIC + Peptide (bacterial isolates; [7]) | Peptide MIC + Piperacillin (bacterial isolates; S. aureus SB3MRSA) | Peptide MIC + Tobramycin (bacterial isolates; S. haemolyticus SHA005) | Peptide MIC + Tobramycin [1]
>128 µg/mL: MIC, Peptide (E. cloacae; E. cloacae ECL007, unmodified parent peptide) | MIC (E. cloacae; E. cloacae strain ECL007) | MIC (H. influenzae) | MIC, Peptide (S. marcescens; S. marcescens SMS003, unmodified parent peptide) | MIC (S. marcescens; S. marcescens strain SMS004) | MIC (S. pneumoniae; S. pneumoniae strain SBSPN3) | MIC (S. pneumoniae; S. pneumoniae strain SPN044) | Peptide MIC Alone (bacterial isolates; [6]) | Peptide MIC Alone [2, 6]
0.50: FIC (bacterial isolates; peptide + Piperacillin, S. aureus SB3MRSA) | FIC (bacterial isolates; [12]) | FIC [2, 12]
0.56: FIC (bacterial isolates; peptide + Tobramycin, S. haemolyticus SHA005)
16 µg/mL: MIC, Peptide (E. coli; E. coli ECO005, unmodified parent peptide) | MIC, Peptide (E. faecalis; E. faecalis EFS004) | MIC, Peptide (E. faecalis; E. faecalis EFS008) | MIC, Peptide (S. aureus; S. aureus SA018) | Peptide MIC + Tobramycin (bacterial isolates; A. baumannii ABI001) | Peptide MIC Alone (bacterial isolates; A. baumannii ABI002, Tobramycin section) | Peptide MIC + Tobramycin ([2]; A. baumannii ABI001) | Piperacillin MIC + Peptide ([2]; A. calcoaceticus 3) | Peptide MIC + Piperacillin ([2]; S. maltophilia 2) | Piperacillin MIC + Peptide ([2]; S. maltophilia 2)
0.38: FIC (bacterial isolates; peptide + Piperacillin, S. aureus 19 MRSA)
1.00: FIC (bacterial isolates; peptide + Tobramycin, A. baumannii ABI002) | FIC ([2]; peptide + Piperacillin, P. aeruginosa 7)
0.26: FIC (bacterial isolates; [14]) | FIC [2, 13] | FIC [2, 14]
8 µg/mL: MIC (E. coli; E. coli strain ECO002) | MIC (E. faecalis; E. faecalis strain EFS002) | MIC, Peptide (S. aureus; S. aureus SA011) | MIC, Peptide (S. aureus; S. aureus SA014) | MIC (S. pyogenes) | Peptide MIC + Tobramycin (bacterial isolates; A. baumannii ABI002) | Peptide MIC Alone (bacterial isolates; S. aureus SB3MRSA, Piperacillin section)
0.63: FIC (bacterial isolates; peptide + Piperacillin, P. aeruginosa 41) | FIC ([2]; peptide + Piperacillin, A. calcoaceticus 3)
0.25 µg/mL: Tobramycin MIC + Peptide (bacterial isolates; S. haemolyticus SHA005)
0.28: FIC (bacterial isolates; [13])
1 µg/mL: MIC, Peptide (S. aureus; S. aureus SA093) | Tobramycin MIC + Peptide (bacterial isolates; S. maltophilia SMA030) | Tobramycin MIC + Peptide ([2]; S. maltophilia SMA029) | Tobramycin MIC + Peptide ([2]; S. maltophilia SMA030)
32 µg/mL: MIC, Peptide (E. faecalis; E. faecalis EFS001) | Peptide MIC Alone (bacterial isolates; [4]) | Piperacillin MIC + Peptide (bacterial isolates; S. aureus 19 MRSA) | Tobramycin MIC + Peptide (bacterial isolates; S. maltophilia SMA029) | Peptide MIC + Tobramycin (bacterial isolates; S. maltophilia SMA030) | Peptide MIC Alone [2, 4] | Peptide MIC Alone ([2]; A. calcoaceticus 3, Piperacillin section) | Peptide MIC Alone ([2]; S. maltophilia 2, Piperacillin section) | Peptide MIC + Tobramycin ([2]; S. maltophilia SMA029) | Peptide MIC + Tobramycin ([2]; S. maltophilia SMA030)
0.75: FIC ([2]; peptide + Piperacillin, S. maltophilia 2)
